Legend:
[1] = target: NPC1-like intracellular cholesterol transporter 1 (Rattus norvegicus, UniProt Q6T3U3); experiment: Displacement of [35S](2S,3S,4S,5R,6S)-6-(4-((2S,3R)-3-((S)-3-(4-fluorophenyl)-3-hydroxypropyl)-1-(4-(3-(methylsulfonamido)prop-1-ynyl)phenyl)-4-oxoazetidin-2-yl)phenoxy)-3,4,5-trihydroxytetrahydro-2H-pyran-2-carboxylic acid from NPC1L1 in rat enterocyte brush border membrane
[2] = Displacement of [35S](2S,3S,4S,5R,6S)-6-(4-((2S,3R)-3-((S)-3-(4-fluorophenyl)-3-hydroxypropyl)-1-(4-(3-(methylsulfonamido)prop-1-ynyl)phenyl)-4-oxoazetidin-2-yl)phenoxy)-3,4,5-trihydroxytetrahydro-2H-pyran-2-carboxylic acid from NPC1L1 in hamster enterocyte brush border membrane; design: species or system Cricetinae
[3] = Displacement of [35S](2S,3S,4S,5R,6S)-6-(4-((2S,3R)-3-((S)-3-(4-fluorophenyl)-3-hydroxypropyl)-1-(4-(3-(methylsulfonamido)prop-1-ynyl)phenyl)-4-oxoazetidin-2-yl)phenoxy)-3,4,5-trihydroxytetrahydro-2H-pyran-2-carboxylic acid from NPC1L1 in guinea pig enterocyte brush border membrane; design: species or system Cavia porcellus
[4] = target: T1, Niemann-Pick C1-like 1 protein (Canis lupus familiaris, UniProt A0MJA4); experiment: Displacement of [35S](2S,3S,4S,5R,6S)-6-(4-((2S,3R)-3-((S)-3-(4-fluorophenyl)-3-hydroxypropyl)-1-(4-(3-(methylsulfonamido)prop-1-ynyl)phenyl)-4-oxoazetidin-2-yl)phenoxy)-3,4,5-trihydroxytetrahydro-2H-pyran-2-carboxylic acid from NPC1L1 in dog enterocyte brush border membrane
T1 sequence (A0MJA4 whole entry): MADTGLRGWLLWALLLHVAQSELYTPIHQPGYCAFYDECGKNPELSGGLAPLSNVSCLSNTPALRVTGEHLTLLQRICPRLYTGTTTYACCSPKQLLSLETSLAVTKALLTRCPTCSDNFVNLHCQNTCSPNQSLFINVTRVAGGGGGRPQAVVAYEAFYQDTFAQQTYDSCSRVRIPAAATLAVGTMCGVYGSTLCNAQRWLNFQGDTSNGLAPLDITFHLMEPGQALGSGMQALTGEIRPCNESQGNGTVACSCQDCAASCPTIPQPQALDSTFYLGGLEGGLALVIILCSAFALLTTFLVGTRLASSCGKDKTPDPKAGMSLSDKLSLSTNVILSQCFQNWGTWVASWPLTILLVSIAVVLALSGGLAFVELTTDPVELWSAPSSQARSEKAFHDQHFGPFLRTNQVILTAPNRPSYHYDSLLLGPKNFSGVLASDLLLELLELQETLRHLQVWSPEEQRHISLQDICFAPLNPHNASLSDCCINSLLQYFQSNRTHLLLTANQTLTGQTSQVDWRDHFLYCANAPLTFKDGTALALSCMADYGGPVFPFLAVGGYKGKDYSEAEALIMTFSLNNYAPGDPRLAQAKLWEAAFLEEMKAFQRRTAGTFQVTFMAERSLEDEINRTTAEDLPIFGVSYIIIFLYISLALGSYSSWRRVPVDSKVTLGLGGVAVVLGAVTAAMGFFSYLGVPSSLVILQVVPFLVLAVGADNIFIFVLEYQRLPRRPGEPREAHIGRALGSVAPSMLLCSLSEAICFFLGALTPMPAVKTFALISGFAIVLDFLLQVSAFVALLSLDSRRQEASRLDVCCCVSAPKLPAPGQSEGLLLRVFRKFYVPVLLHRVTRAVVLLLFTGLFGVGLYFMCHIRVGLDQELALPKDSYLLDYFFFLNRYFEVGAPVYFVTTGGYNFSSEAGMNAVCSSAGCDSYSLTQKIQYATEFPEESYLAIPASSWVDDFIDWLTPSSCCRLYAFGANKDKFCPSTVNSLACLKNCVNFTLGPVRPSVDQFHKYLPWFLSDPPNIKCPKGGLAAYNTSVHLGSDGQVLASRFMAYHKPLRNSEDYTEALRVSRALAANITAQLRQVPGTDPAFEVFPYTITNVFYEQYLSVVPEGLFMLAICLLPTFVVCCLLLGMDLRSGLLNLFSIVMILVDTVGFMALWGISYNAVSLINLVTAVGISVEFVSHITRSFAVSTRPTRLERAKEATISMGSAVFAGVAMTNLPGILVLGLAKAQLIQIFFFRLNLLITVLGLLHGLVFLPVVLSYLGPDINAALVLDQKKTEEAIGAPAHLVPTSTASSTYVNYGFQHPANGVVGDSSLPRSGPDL

[5] = Displacement of [35S](2S,3S,4S,5R,6S)-6-(4-((2S,3R)-3-((S)-3-(4-fluorophenyl)-3-hydroxypropyl)-1-(4-(3-(methylsulfonamido)prop-1-ynyl)phenyl)-4-oxoazetidin-2-yl)phenoxy)-3,4,5-trihydroxytetrahydro-2H-pyran-2-carboxylic acid from NPC1L1 in pig enterocyte brush border membrane; design: species or system Sus scrofa

Chain of NPC1-like intracellular cholesterol transporter 1 (Q6T3U3 21-1331 limits assumed): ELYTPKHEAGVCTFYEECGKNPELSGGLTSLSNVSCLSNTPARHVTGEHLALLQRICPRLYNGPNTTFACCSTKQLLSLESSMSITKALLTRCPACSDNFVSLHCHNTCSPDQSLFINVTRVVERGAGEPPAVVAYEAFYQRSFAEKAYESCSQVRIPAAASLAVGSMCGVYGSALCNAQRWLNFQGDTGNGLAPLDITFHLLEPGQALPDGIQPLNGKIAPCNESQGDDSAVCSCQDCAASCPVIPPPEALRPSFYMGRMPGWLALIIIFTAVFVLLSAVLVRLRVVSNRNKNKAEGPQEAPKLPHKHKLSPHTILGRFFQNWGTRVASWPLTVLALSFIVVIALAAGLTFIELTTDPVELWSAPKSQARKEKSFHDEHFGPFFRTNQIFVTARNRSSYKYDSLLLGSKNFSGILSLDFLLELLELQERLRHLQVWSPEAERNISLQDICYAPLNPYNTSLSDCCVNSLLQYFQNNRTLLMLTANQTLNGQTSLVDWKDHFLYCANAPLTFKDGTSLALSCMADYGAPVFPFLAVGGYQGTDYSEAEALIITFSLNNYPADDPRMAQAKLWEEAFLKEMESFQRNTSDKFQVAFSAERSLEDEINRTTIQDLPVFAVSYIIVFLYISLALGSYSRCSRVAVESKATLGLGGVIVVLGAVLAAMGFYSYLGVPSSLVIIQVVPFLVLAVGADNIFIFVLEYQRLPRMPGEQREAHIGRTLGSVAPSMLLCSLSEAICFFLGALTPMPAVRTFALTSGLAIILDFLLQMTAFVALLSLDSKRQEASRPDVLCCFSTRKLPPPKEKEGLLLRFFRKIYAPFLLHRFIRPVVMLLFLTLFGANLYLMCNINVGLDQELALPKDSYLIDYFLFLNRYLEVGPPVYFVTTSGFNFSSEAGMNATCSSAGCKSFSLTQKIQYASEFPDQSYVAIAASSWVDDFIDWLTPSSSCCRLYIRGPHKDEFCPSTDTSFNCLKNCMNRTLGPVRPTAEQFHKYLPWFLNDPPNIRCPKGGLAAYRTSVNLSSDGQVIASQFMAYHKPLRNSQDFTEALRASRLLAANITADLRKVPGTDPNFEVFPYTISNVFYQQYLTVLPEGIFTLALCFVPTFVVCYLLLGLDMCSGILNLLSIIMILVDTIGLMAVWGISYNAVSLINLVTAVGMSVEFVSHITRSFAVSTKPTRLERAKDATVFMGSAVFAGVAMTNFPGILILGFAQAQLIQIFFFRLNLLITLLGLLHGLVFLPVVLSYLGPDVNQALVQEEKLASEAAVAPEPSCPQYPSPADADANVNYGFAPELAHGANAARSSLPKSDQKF

Row | SMILES | IC50 [1] [µM] | IC50 [2] [µM] | IC50 [3] [µM] | IC50 [4] [µM] | IC50 [5] [µM]
1 | CS(=O)(=O)NCC#CN1C(=O)[C@H](CC[C@H](O)c2ccc(F)cc2)[C@H]1c1ccc(O[C@@H]2O[C@H](C(=O)O)[C@@H](O)[C@H](O)[C@H]2O)cc1 | 0.016 | 0.022 | 0.071 | 0.008 | 0.013
2 | O=C(O)[C@H]1O[C@@H](Oc2ccc([C@@H]3[C@@H](CC[C@H](O)c4ccc(F)cc4)C(=O)N3c3ccc(F)cc3)cc2)[C@H](O)[C@@H](O)[C@@H]1O | 0.58 | 0.65 | 3.3 | 0.06 | 0.32
3 | CC(C)(C)c1ccc(C(=O)N2CCC3(CC2)C(=O)N(CC(=O)N2CCCCC2)CN3c2ccccc2)cc1 | 110 | 41 | 470 | 170 | > 500
4 | O=C([C@@H]1C[C@@H](c2ccccc2)CN1C(=O)c1ccccc1)N1CCC2(C=Cc3ccccc32)CC1 | 34 | 62 | 118 | > 500 | > 500

— ChEMBL document CHEMBL1136903, “Spiroimidazolidinone NPC1L1 inhibitors. 1: Discovery by 3D-similarity-based virtual screening” (Bioorg Med Chem Lett, 2009)
